Source: publication PMC8508963 (2021)

Tests used:
Experiment in all cases: fluorescence titration and Job plot
[1] = system: ds12 (DNA, duplex) CGCGAATTCGCG; settings: 100 mM K+ (KCl) plus 20 mM potassium phosphate; pH 7, 20 °C, Job total 2 µM; lowest fluorescence enhancement
[2] = system: m-tel24 (DNA, G4) TTGGGTTAGGGTTAGGGTTAGGGA; settings: 100 mM K+ (KCl) plus 20 mM potassium phosphate; pH 7, 20 °C, Job total 2 µM; highest fluorescence; groove binding suggested by induced CD
[3] = system: M2 (DNA, G4) TAGGGACGGGCGGGCAGGGT; settings: 100 mM K+ (KCl) plus 20 mM potassium phosphate; pH 7, 20 °C, Job total 2 µM; medium fluorescence enhancement

Measured: binding

CN(C)CCCNC(=O)c1ccc2[nH]c3c([nH]c2c1)c1c(=O)n(CCCN(C)C)c(=O)c2ccc4c(=O)n(CCCN(C)C)c(=O)c3c4c21
yes: all assays above
